# In US10494414B2, “Immunoglobulin G-binding peptide” (KANEKA CORPORATION, priority 2014, dated 2019):
# Tests used:
# [1] = test system: IgG-Fab of anti-TNFα monoclonal antibody; assay: Binding response versus peptide concentration on immobilized IgG-Fab (Biacore); details: about 10000 RU immobilized, peptide 25-200 nM, response 1 minute after addition, SEQ ID NO: 14 specifically 0.4 to 0.6
# [2] = target: T1, IgG-Fc of anti-TNFα monoclonal antibody (Homo sapiens, UniProt P01857); assay: Binding response versus peptide concentration on immobilized IgG-Fc (Biacore); details: about 10000 RU immobilized, peptide 25-200 nM, response 1 minute after addition, SEQ ID NO: 14 specifically 0.4 to 0.6
# T1 construct: a Fc region of a heavy chain is composed of CH2 and CH3; purchased Mitsubishi Tanabe Pharma Corporation Remicade
# [3] = test system: Fab fragment; assay: Association constant of wild Protein G to Fab fragment in Biacore system; type: binding; details: 25° C., pH 7.4
# Text: For example, as a binding parameter, association constant (KA) and dissociation constant (KD) can be used ([NT] et al., “Real-Time Analysis Experimental Method for Interaction Between Biological Substances”, Springer-Verlag Tokyo, 1998, p. 41). An association constant between the present invention peptide and a Fc fragment or a Fab fragment can be measured by immobilizing a Fc fragment or a Fab fragment on a sensor tip and adding the present invention peptide into a flow channel under a condition of the temperature of 25° C. and pH 7.4 in Biacore system. In an experiment utilizing Biacore system, the order of a parameter may be largely changed depending on an experimental condition, an analysis method and/or the kind of used original IgG. Under such a circumstance, when an evaluation is also conducted by using a wild Protein G in the same experimental condition and analysis method, it becomes standard whether the measured association constant is larger or not in comparison with the association constant of wild Protein G to a Fab region. The performance of a conventional wild Protein G is not sufficient as a peptide which binds to both of a Fc region and a Fab region of an immunoglobulin G, since the binding force thereof to a Fab region is not sufficient. […] A wild Protein G is easily available as a commercial reagent for study. […]
# [4] = test system: Anti-TNFα antibody - Fab; assay: Biacore surface plasmon resonance affinity for IgG-Fab of anti-TNFα monoclonal antibody; type: binding
# Protocol: (§1) The affinity of the peptide obtained in the above-described Example 1(2) for the Fc region and Fab region of anti-RSV monoclonal antibody was evaluated using a biosensor Biacore3000 (manufactured by GE Healthcare Bioscience) utilizing surface plasmon resonance. In the present Example, the IgG-Fc or IgG-Fab obtained in the above-described Example 2(1) was immobilized on a sensor tip, and the peptide solution was flowed across the sensor tip to detect the interaction between the two. The IgG-Fab or IgG-Fc was immobilized on a sensor tip CM5 by amine coupling method using N-hydroxysuccinimide (NHS) and N-ethyl-N′-(3-dimethylaminopropyl)carbodiimide hydrochloride (EDC), and ethanolamine was used for blocking. All of the sensor tip and reagents for immobilization was manufactured by GE Healthcare Bioscience. The IgG-Fab solution was diluted to about 10 times using a buffer for immobilization (10 mM AcOH—AcONa, pH 4.5), and the IgG-Fab was immobilized on the sensor tip in accordance with the protocol attached to the Biacore 3000. […]
# (§2) Also, the affinity of the peptide according to the present invention (SEQ ID NO: 2) for IgG-Fab prepared from anti-EGFR monoclonal antibody (“Erbitux” sold by Bristol-Myers Squibb) and anti-TNFα monoclonal antibody (“Remicade” sold by Mitsubishi Tanabe Pharma Corporation) was evaluated. The IgG-Fab was prepared in a similar manner to the above-described (1), and the affinity was basically evaluated in a similar manner to the above-described (2). […]
# Each peptide was prepared in a similar method to the above-described Example 1 except that the combination of single-stranded oligo DNAs shown in Table 3 was used for preparing expression plasmid. […] As representative data, the affinity for IgG-Fab of anti-TNFα monoclonal antibody was evaluated by a similar manner to the above-described Example 2. […] For example, the value in the left graph is logarithm (Log 10) of a value calculated by dividing an affinity constant (KA) of each peptide by an affinity constant of SEQ ID NO: 2. […]
# [5] = test system: Anti-RSV antibody - Fab; assay: Biacore surface plasmon resonance affinity for IgG-Fab of anti-RSV monoclonal antibody; type: binding, human
# Text: (§3) A humanized monoclonal IgG product as a raw material was fragmented into a Fab fragment and a Fc fragment using papain, and only the Fab fragment was separated and purified. Hereinafter, a method for producing IgG-Fc/IgG-Fab derived from anti-RSV monoclonal antibody (generic name: Palivizumab) is described. The term “RSV” is an abbreviation of RS virus. In the present disclosure, when other IgG-Fc and IgG-Fab were used for evaluation, the fragments were basically prepared in a similar method.
# (§4) Specifically, a humanized monoclonal IgG product (“Synagis” manufactured by CHUGAI PHARMACEUTICAL CO., LTD., in the case of anti-RS virus monoclonal agent) was dissolved in a buffer for papain treatment (0.1M AcOH—AcONa, 2 mM EDTA, 1 mM cysteine, pH 5.5), and agarose immobilized by papain (“Papain Agarose from papaya latex” manufactured by SIGMA) was added thereto. The mixture was incubated with stirring by a rotator at 37° C. for about 8 hours. The IgG-Fc was purified from the reaction mixture which contained both of a Fab fragment and a Fc fragment and which was separated from the agarose immobilized by papain by recovering the IgG-Fc as a flow-through fraction of an affinity chromatography using Kappa Select column (manufactured by GE Healthcare Bioscience). The IgG-Fab was purified by recovering the IgG-Fab as a flow-through fraction in an affinity chromatography using KanCapA column (manufactured by GE Healthcare Bioscience). The obtained crude IgG-Fc solution was subjected to purification by gel filtration chromatography using Superdex 75 10/300 GL column to obtain IgG-Fc solution. In the chromatography, a standard buffer was used for equilibration and separation. The obtained crude IgG-Fab solution was similarly subjected to purification. […]
# (§5) The affinity of the peptide obtained in the above-described Example 1(2) for the Fc region and Fab region of anti-RSV monoclonal antibody was evaluated using a biosensor Biacore3000 (manufactured by GE Healthcare Bioscience) utilizing surface plasmon resonance. […]
# [6] = test system: Anti-EGFR antibody - Fab; assay: Biacore surface plasmon resonance affinity for IgG-Fab of anti-EGFR monoclonal antibody; type: binding
# Protocol: as §1, with “3000. In addition, a reference cell as negative control was also prepared by activating another flow cell on the tip with EDC/NHS and then immobilizing ethanolamine only. Peptide solutions having concentrations of 16 nM, 64 nM or 256 nM were prepared using a running buffer (20 mM NaH2PO4—Na2HPO4, 150 mM NaCl, 0.005% P-20, pH 7.4). Each peptide solution was added to the sensor tip in a flow rate of 40 μL/min for 1 minute. Bonding response curves at the time of addition (association phase, 1 minute) and after the addition (dissociation phase, 1 minute) were sequentially obtained at a measurement temperature of 25° C.” for “3000.”
# as §2
# [7] = target: T2, Anti-RSV antibody - Fc (Homo sapiens, UniProt P01857); assay: Biacore surface plasmon resonance affinity for IgG-Fc of anti-RSV monoclonal antibody; type: binding
# T2 construct: a Fc region of a heavy chain is composed of CH2 and CH3; purchased CHUGAI PHARMACEUTICAL CO., LTD; Synagis
# Text: as §3, §4, §5
# [8] = test system: Fab region; details: Non-patent Documents 1 and 2; cited from earlier work
# [9] = Anti-RSV antibody - Fab immobilized, 25° C., pH 7.4, 1:1 binding model
# [10] = Anti-RSV antibody - Fc immobilized, 25° C., pH 7.4, 1:1 binding model
substance,measurement,setting,value
"SEQ ID NO: 14: IgG-binding peptide; difference from SEQ ID NO: 2: Xaa21 = Asp, Xaa28 = Lys (TTYKLILNGKTLTGYTTAIADDAATAEKVLKQFANDNGIDGEWTYDDATKTFTVTE; Immunoglobulin-binding peptide)",inclination of approximate curve of binding response versus peptide concentration,[1],about 0.5
same,inclination of approximate curve of binding response versus peptide concentration,[2],about 0.5
"wild Protein G: conventional wild Protein G, available as a commercial reagent for study","association constant KA to a Fab fragment, as an order",[3],about 10^5
"SEQ ID NO: 2: IgG-binding peptide (SpG mutant) having the amino acid sequence of SEQ ID NO: 2, with N-terminal Gly-Pro-Leu-Gly-Ser from the vector (TTYKLILNGKTLTGYTTAIAADAATAEIVLKQFANDNGIDGEWTYDDATKTFTVTE; N-terminal vector-derived residues; Immunoglobulin-binding peptide)",KA,[4]; KA=kon/koff,4e+07 M⁻¹
same,koff,"[4]; peptide 25, 100, 400 nM",0.01 s⁻¹
same,kon,"[4]; peptide 25, 100, 400 nM",413000 s/M
same,koff,[5]; [9],0.003 s⁻¹
same,kon,[5]; [9],66000 s/M
same,KA,"[5]; Anti-RSV antibody - Fab, KA=kon/koff",2e+07 M⁻¹
same,KA,[6]; KA=kon/koff,6.5e+07 M⁻¹
same,koff,"[6]; peptide 25, 100, 400 nM",0.039 s⁻¹
same,kon,"[6]; peptide 25, 100, 400 nM",252000 s/M
same,koff,[7]; [10],0.028 s⁻¹
same,kon,[7]; [10],97000 s/M
same,KA,"[7]; Anti-RSV antibody - Fc, KA=kon/koff",3.5e+06 M⁻¹
Protein G: IgG-binding cell wall protein produced by Streptococcus sp. classified into Group G,"association constant (KA) to a Fab region, times less than that to a Fc region",[8],10 times
